Reference: article PMC11295495 (Neuropharmacology, 2023)
Where two headings read alike, the source gives them in different places.

Experiments:
[1] = target: T1, a9a10 nAChR (Homo sapiens, UniProt Q9GZZ6+Q9UGM1); experiment: two-electrode voltage-clamp in Xenopus oocytes, inhibition of […] ACh responses; assay type: cell-based
[2] = target: T1, a9a10 nAChR; experiment: as above; assay type: cell-based; remark: listed apart in the source
[3] = target: a9 nAChR (Homo sapiens, UniProt Q9UGM1); experiment: as above; assay type: cell-based
Chain of a9 nAChR (Q9UGM1 23-479): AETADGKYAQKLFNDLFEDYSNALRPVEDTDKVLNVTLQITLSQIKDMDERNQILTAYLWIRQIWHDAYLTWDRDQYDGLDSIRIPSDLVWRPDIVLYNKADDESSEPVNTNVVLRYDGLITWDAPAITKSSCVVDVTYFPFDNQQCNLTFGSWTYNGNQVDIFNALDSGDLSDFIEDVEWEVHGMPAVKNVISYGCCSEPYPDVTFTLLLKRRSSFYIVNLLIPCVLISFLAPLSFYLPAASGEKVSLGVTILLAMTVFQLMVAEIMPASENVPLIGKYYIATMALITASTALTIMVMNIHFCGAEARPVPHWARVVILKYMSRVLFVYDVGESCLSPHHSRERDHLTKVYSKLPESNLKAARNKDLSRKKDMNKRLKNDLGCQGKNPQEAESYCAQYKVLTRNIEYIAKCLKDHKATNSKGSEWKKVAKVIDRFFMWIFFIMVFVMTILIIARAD

[4] = target: a7 nAChR (Homo sapiens, UniProt P36544); experiment: cell-based
Chain of a7 nAChR (P36544 23-502): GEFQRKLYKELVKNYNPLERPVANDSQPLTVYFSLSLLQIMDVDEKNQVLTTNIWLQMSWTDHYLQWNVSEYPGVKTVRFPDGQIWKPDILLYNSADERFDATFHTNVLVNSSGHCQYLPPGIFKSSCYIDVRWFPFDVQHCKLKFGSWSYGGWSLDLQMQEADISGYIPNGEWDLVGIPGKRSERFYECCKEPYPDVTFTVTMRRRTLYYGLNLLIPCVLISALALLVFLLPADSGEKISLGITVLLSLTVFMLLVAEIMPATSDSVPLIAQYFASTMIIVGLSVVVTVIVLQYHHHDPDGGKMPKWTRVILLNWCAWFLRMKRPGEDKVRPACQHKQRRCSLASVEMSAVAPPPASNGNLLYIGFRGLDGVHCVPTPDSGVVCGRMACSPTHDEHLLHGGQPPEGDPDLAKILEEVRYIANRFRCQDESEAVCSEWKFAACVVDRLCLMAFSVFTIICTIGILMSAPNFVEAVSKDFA

T1 sequence (Q9UGM1 23-479): as the sequence (Q9UGM1 23-479) above
T1 sequence (Q9GZZ6 25-450): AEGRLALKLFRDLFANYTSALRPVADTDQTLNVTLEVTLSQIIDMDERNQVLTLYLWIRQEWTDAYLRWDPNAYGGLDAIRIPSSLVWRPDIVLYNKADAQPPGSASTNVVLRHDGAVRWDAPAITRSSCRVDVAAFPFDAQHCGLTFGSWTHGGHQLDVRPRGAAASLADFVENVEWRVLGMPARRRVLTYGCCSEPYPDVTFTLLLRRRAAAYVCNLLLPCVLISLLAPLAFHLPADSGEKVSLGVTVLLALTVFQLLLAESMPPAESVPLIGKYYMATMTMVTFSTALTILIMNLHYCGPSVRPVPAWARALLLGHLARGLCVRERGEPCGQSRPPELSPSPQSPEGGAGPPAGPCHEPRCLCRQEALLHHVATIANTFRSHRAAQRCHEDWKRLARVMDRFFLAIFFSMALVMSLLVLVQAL

Row | Structure (SMILES) | IC50 [1] | IC50 [2] | IC50 [3] | IC50 [4]
1 | CC[N+]1(CC)CCN(c2cccc(C#N)c2)CC1 [mCN-diEPP, 4-(3-cyanophenyl)-1,1-diethylpiperazin-1-ium] | 17100 ± 1540 nM | – | – | –
2 | CN1CCC[C@H]1c1cccnc1 [nicotine] | 437000 ± 73000 nM | – | – | –
3 | CCN1C[C@]2(COC(=O)c3ccccc3N3C(=O)C[C@H](C)C3=O)CC[C@H](OC)[C@@]34[C@@H]5C[C@H]6[C@H](OC)[C@@H]5[C@](O)(C[C@@H]6OC)[C@@](O)([C@@H](OC)[C@H]23)[C@@H]14 [methyllycaconitine] | – | 240 ± 130 nM | 190 ± 20 nM | 120 ± 50 nM
